Assay results: patent US9844556B2, “Preventive/therapeutic method and preventive/therapeutic agent for complications after cataract surgery” (KOWA COMPANY, LTD., priority 2015, dated 2017)

Key:
Assay type in all cases: cell-based
[1] = system: Human lens epithelial cells (HLEpiC); assay: Inhibitory action on actin stress fiber formation (phalloidin staining, confocal microscopy); settings: treated about an hour
Method: Human lens epithelial cells (HLEpiC (ScienCell Research Laboratories)) were diluted with a medium (Epithelial Cell Medium (ScienCell Research Laboratories)), dispensed to each well of Poly-L-lysine (ScienCell Research Laboratories) coated Imaging Chamber CG at 100 μL/well (about 5000 cells/cm^2), and cultured in a carbon dioxide incubator (37° C., 5% CO2) until about 50% confluent. The medium was removed with vacuum suction and a test substance, a positive control, a comparative control, or the medium (control) at each concentration given below was added to each well at 300 μL/well:
Test substance: Ripasudil with a concentration of 10 μM, 100 μM or 1 mM,
Positive control: Cytochalasin D with a concentration of 2 μM,
These were treated in a carbon dioxide incubator (37° C., 5% CO2) for about an hour, and then washed once with the medium. 4% Paraformaldehyde Phosphate Buffer Solution (Wako Pure Chemical Industries, Ltd.) (hereinafter, referred to as a fixative solution) was added at 300 μL/well, and fixation was carried out at room temperature for 2 minutes. After washing with the medium, 0.5% Triton X-100 (Roche Diagnostics K.K.) was added at 300 μL/well, and penetrated at room temperature for 2 minutes. After washing with the medium, the fixative solution was added at 300 μL/well, and fixation was carried out at room temperature for 20 minutes.
Separately, 25 μL of 14 μM Actin-Stain™ 555 phalloidin (Cytoskeleton, Inc.) (hereinafter, referred to as Phalloidin) was added to 3475 μL of 10 mM phosphate buffered saline (Wako Pure Chemical Industries, Ltd.) to produce 100 nM Phalloidin.
This 100 nM Phalloidin was added to each well washed with the medium at 200 μL/well, and staining was carried out at room temperature in a dark place for about 60 minutes.
After washing with the medium, the chamber was removed, and […] Mounting Medium with DAPI (Vector Laboratories, Inc.) was dropped onto a cover glass with a few drops. A slide glass was placed thereon and this was left to stand at room temperature in a dark place for 30 minutes or more, and adhesion and nuclear staining were carried out and then observed by a confocal laser scanning microscope.

[2] = system: Human lens epithelial cells (HLEpiC); assay: Reversibility of inhibition of actin stress fiber formation after removal; settings: recultured about 24 hours after removal
Method: After removal of the test substance, positive control or comparative control in Example 1, the cells were recultured for about another 24 hours, treated in accordance with the operation in Example 1, and then observed by a confocal laser scanning microscope in the same manner as in Example 1 to observe the reversibility of actin stress fibers.

[3] = system: Human lens epithelial cells (SRA01/04); assay: Action on DNA synthesis capability (BrdU uptake) of human lens epithelial cell line; settings: 24 hours
Method: Human lens epithelial cells (SRA01/04 (Riken Cell Bank)) were cultured using 20% FBS-DMEM medium under conditions of 37° C. and 5% CO2. The concentration of SRA01/04 was adjusted using 2% FBS-DMEM, and the cells were seeded in a 96 Well Plate at 100 μL/well (5000 cells/well) and cultured under conditions of 37° C. and 5% CO2 for 24 hours. The medium was exchanged with 5% FBS-DMEM medium, and TGFβ at 10 ng/mL (final concentration) or Ripasudil at 10, 30 or 100 μM (final concentration) was added to each well, and the cells were cultured for another 24 hours. The uptake rate of 5-bromo-2′-deoxyuridine (BrdU) in the cells was measured using Cell Proliferation ELISA, BrdU (colorimetric) kit (Roche) at a measurement wavelength of 450 nm by Multiskan MS version 8.0 (LABSYSTEMS), and cell proliferation properties were evaluated.

C[C@H]1CNCCCN1S(=O)(=O)c1cccc2cncc(F)c12 [Ripasudil, 4-fluoro-5-{[(2S)-2-methyl-1,4-diazepan-1-yl]sulfonyl}isoquinoline]
actin stress fibers (observation) ([1]; 10 μM): slightly disappear
actin stress fibers (observation) ([1]; 100 μM): significantly disappear
actin stress fibers (observation) ([1]; 1 mM): significantly disappear
reversibility of actin stress fibers ([2]; 100 μM): recovered
reversibility of actin stress fibers ([2]; 1 mM): recovered
DNA synthesis capability (BrdU uptake) of SRA01/04 ([3]; 30 μM): statistically significant decrease
DNA synthesis capability (BrdU uptake) of SRA01/04 ([3]; 10, 30 or 100 μM): dose-dependent inhibitory action
